System: 485176-168-R4-J1-PDC spheroids with HUVEC/MSC, viability
Test: Anticancer human tumor 485176-168-R4-J1-PDC patient-derived pancreatic adenocarcinoma cell line growth inhibition [GQUAD]
Settings: for IC50: curve of first compound; for viability, T/C: stronger effect = lower value
Procedure, shortened: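 Tumor cells were grown as complex spheroids with HUVEC endothelial cells and mesenchymal stem cells as stroma. G-quadruplex stabilizers were combined with targeted agents over half-log dilutions from near the clinical Cmax, or from 10 microM.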

[1] = second compound 0.0316 µM, first compound 0.0316 µM
[2] = second compound 0.0316 µM, first compound 0.316 µM
[3] = second compound 0.1 µM, first compound 0.0316 µM
[4] = second compound 0.1 µM, first compound 0.316 µM
[5] = second compound 0.316 µM, first compound 0.0316 µM
[6] = second compound 0.316 µM, first compound 0.316 µM
[7] = second compound 1 µM, first compound 0.0316 µM
[8] = second compound 1 µM, first compound 0.316 µM
[9] = second compound 3.16 µM, first compound 0.0316 µM
[10] = second compound 3.16 µM, first compound 0.316 µM
[11] = second compound 10 µM, first compound 0.0316 µM
[12] = second compound 10 µM, first compound 0.316 µM
[13] = second compound 0.0316 µM, first compound 0.000999 µM
[14] = second compound 0.0316 µM, first compound 0.00316 µM
[15] = second compound 0.0316 µM, first compound 0.00999 µM
[16] = second compound 0.0316 µM, first compound 0.0999 µM
[17] = second compound 0.1 µM, first compound 0.000999 µM
[18] = second compound 0.1 µM, first compound 0.00316 µM
[19] = second compound 0.1 µM, first compound 0.00999 µM
[20] = second compound 0.1 µM, first compound 0.0999 µM
[21] = second compound 0.316 µM, first compound 0.000999 µM
[22] = second compound 0.316 µM, first compound 0.00316 µM
[23] = second compound 0.316 µM, first compound 0.00999 µM
[24] = second compound 0.316 µM, first compound 0.0999 µM
[25] = second compound 1 µM, first compound 0.000999 µM
[26] = second compound 1 µM, first compound 0.00316 µM
[27] = second compound 1 µM, first compound 0.00999 µM
[28] = second compound 1 µM, first compound 0.0999 µM
[29] = second compound 3.16 µM, first compound 0.000999 µM
[30] = second compound 3.16 µM, first compound 0.00316 µM
[31] = second compound 3.16 µM, first compound 0.00999 µM
[32] = second compound 3.16 µM, first compound 0.0999 µM
[33] = second compound 10 µM, first compound 0.000999 µM
[34] = second compound 10 µM, first compound 0.00316 µM
[35] = second compound 10 µM, first compound 0.00999 µM
[36] = second compound 10 µM, first compound 0.0999 µM
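Also: spheroids exposed to compounds for seven days before readout.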
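For viability, T/C in this document: percent viability relative to DMSO vehicle control wells as 100%.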

## CC(=O)O[C@H]1C(=O)[C@@]2(C)[C@H]([C@H](OC(=O)c3ccccc3)[C@]3(O)C[C@H](OC(=O)[C@H](O)[C@@H](NC(=O)c4ccccc4)c4ccccc4)C(C)=C1C3(C)C)[C@]1(OC(C)=O)CO[C@@H]1C[C@@H]2O + Cc1cnc(CNC(=O)c2c(=O)c3ccc(N4CCCN(C)CC4)nc3n3c2sc2ccccc23)cn1
Second compound 0.0316 µM
  IC50: < 31.6 nM
Second compound 0.1 µM
  IC50: < 31.6 nM
Second compound 0.316 µM
  IC50: < 31.6 nM
Second compound 1 µM
  IC50: < 31.6 nM
Second compound 3.16 µM
  IC50: < 31.6 nM
Second compound 10 µM
  IC50: < 31.6 nM
[1]
  viability, T/C: 30%
Second compound 0.0316 µM, first compound 0.1 µM
  viability, T/C: 13.6%
[2]
  viability, T/C: 11.2%
Second compound 0.0316 µM, first compound 1 µM
  viability, T/C: 12.7%
Second compound 0.0316 µM, first compound 3.16 µM
  viability, T/C: 10.6%
Second compound 0.0316 µM, first compound 10 µM
  viability, T/C: 9.91%
[3]
  viability, T/C: 27.1%
Second compound 0.1 µM, first compound 0.1 µM
  viability, T/C: 19%
[4]
  viability, T/C: 12%
Second compound 0.1 µM, first compound 1 µM
  viability, T/C: 12.8%
Second compound 0.1 µM, first compound 3.16 µM
  viability, T/C: 11.7%
Second compound 0.1 µM, first compound 10 µM
  viability, T/C: 9.87%
[5]
  viability, T/C: 22%
Second compound 0.316 µM, first compound 0.1 µM
  viability, T/C: 14.2%
[6]
  viability, T/C: 10.4%
Second compound 0.316 µM, first compound 1 µM
  viability, T/C: 11.8%
Second compound 0.316 µM, first compound 3.16 µM
  viability, T/C: 13.8%
Second compound 0.316 µM, first compound 10 µM
  viability, T/C: 12.9%
[7]
  viability, T/C: 23.1%
Second compound 1 µM, first compound 0.1 µM
  viability, T/C: 17.3%
[8]
  viability, T/C: 17.5%
Second compound 1 µM, first compound 1 µM
  viability, T/C: 11.9%
Second compound 1 µM, first compound 3.16 µM
  viability, T/C: 11.8%
Second compound 1 µM, first compound 10 µM
  viability, T/C: 14.7%
[9]
  viability, T/C: 26%
Second compound 3.16 µM, first compound 0.1 µM
  viability, T/C: 17.8%
[10]
  viability, T/C: 12.8%
Second compound 3.16 µM, first compound 1 µM
  viability, T/C: 12.8%
Second compound 3.16 µM, first compound 3.16 µM
  viability, T/C: 15.3%
Second compound 3.16 µM, first compound 10 µM
  viability, T/C: 12.7%
[11]
  viability, T/C: 23.4%
Second compound 10 µM, first compound 0.1 µM
  viability, T/C: 14.8%
[12]
  viability, T/C: 14.5%
Second compound 10 µM, first compound 1 µM
  viability, T/C: 12.9%
Second compound 10 µM, first compound 3.16 µM
  viability, T/C: 12.8%
Second compound 10 µM, first compound 10 µM
  viability, T/C: 11.2%

## CC[C@@]1(O)C(=O)OCc2c1cc1n(c2=O)Cc2cc3c(CN(C)C)c(O)ccc3nc2-1 + Cc1cnc(CNC(=O)c2c(=O)c3ccc(N4CCCN(C)CC4)nc3n3c2sc2ccccc23)cn1
Second compound 0.0316 µM
  IC50: 113 nM
Second compound 0.1 µM
  IC50: 59.2 nM
Second compound 0.316 µM
  IC50: 43.4 nM
Second compound 1 µM
  IC50: 10.9 nM
Second compound 3.16 µM
  IC50: 1.18 nM
Second compound 10 µM
  IC50: < 0.999 nM
[13]
  viability, T/C: 94.4%
[14]
  viability, T/C: 84.9%
[15]
  viability, T/C: 87.5%
[1]
  viability, T/C: 70.3%
[16]
  viability, T/C: 52.8%
[2]
  viability, T/C: 29.3%
[17]
  viability, T/C: 75.8%
[18]
  viability, T/C: 72.1%
[19]
  viability, T/C: 88.9%
[3]
  viability, T/C: 60.9%
[20]
  viability, T/C: 44.8%
[4]
  viability, T/C: 37.1%
[21]
  viability, T/C: 69.3%
[22]
  viability, T/C: 62.8%
[23]
  viability, T/C: 64%
[5]
  viability, T/C: 52.4%
[24]
  viability, T/C: 41.8%
[6]
  viability, T/C: 32.2%
[25]
  viability, T/C: 47.8%
[26]
  viability, T/C: 55.1%
[27]
  viability, T/C: 50.9%
[7]
  viability, T/C: 42.4%
[28]
  viability, T/C: 35.9%
[8]
  viability, T/C: 33.5%
[29]
  viability, T/C: 49.5%
[30]
  viability, T/C: 49.4%
[31]
  viability, T/C: 39.8%
[9]
  viability, T/C: 41.2%
[32]
  viability, T/C: 34.4%
[10]
  viability, T/C: 30.8%
[33]
  viability, T/C: 42.7%
[34]
  viability, T/C: 44.5%
[35]
  viability, T/C: 41.3%
[11]
  viability, T/C: 36.4%
[36]
  viability, T/C: 36.3%
[12]
  viability, T/C: 27.5%

## CCc1c2c(nc3ccc(O)cc13)-c1cc3c(c(=O)n1C2)COC(=O)[C@]3(O)CC + Cc1cnc(CNC(=O)c2c(=O)c3ccc(N4CCCN(C)CC4)nc3n3c2sc2ccccc23)cn1
Second compound 0.0316 µM
  IC50: 3.5 nM
Second compound 0.1 µM
  IC50: 1.5 nM
Second compound 0.316 µM
  IC50: 1.67 nM
Second compound 1 µM
  IC50: < 0.999 nM
Second compound 3.16 µM
  IC50: < 0.999 nM
Second compound 10 µM
  IC50: < 0.999 nM
[13]
  viability, T/C: 79.5%
[14]
  viability, T/C: 47.6%
[15]
  viability, T/C: 36%
[1]
  viability, T/C: 19.6%
[16]
  viability, T/C: 12.6%
[2]
  viability, T/C: 4.96%
[17]
  viability, T/C: 54.7%
[18]
  viability, T/C: 42.7%
[19]
  viability, T/C: 26.6%
[3]
  viability, T/C: 21.9%
[20]
  viability, T/C: 11.4%
[4]
  viability, T/C: 4.78%
[21]
  viability, T/C: 53%
[22]
  viability, T/C: 47%
[23]
  viability, T/C: 30.9%
[5]
  viability, T/C: 19.5%
[24]
  viability, T/C: 10.7%
[6]
  viability, T/C: 5.12%
[25]
  viability, T/C: 40.2%
[26]
  viability, T/C: 38.9%
[27]
  viability, T/C: 33.2%
[7]
  viability, T/C: 20%
[28]
  viability, T/C: 11.9%
[8]
  viability, T/C: 5.51%
[29]
  viability, T/C: 42.6%
[30]
  viability, T/C: 35%
[31]
  viability, T/C: 27.3%
[9]
  viability, T/C: 22.1%
[32]
  viability, T/C: 11.1%
[10]
  viability, T/C: 6.82%
[33]
  viability, T/C: 33.8%
[34]
  viability, T/C: 29.4%
[35]
  viability, T/C: 25.1%
[11]
  viability, T/C: 19.9%
[36]
  viability, T/C: 5.56%
[12]
  viability, T/C: 0.25%
